Tests used:
[1] = tested on: mycelium of most mushroom species, e.g. A. bisporus; settings: cited from earlier work
[2] = tested on: Agaricus bisporus; type: in vivo; settings: after 3 flushes
Description: This example describes the effect of natamycin on the yield of mushrooms. Tubs having an area of 0.26 m^2 were filled with commercially prepared pasteurized mushroom substrate inoculated with spawn (seed) of the commercial button mushroom Agaricus bisporus. Following colonization by the mushroom fungus, the substrate was covered by a layer of peat moss, mixed with limestone (the casing layer) and further incubated under well known standard conditions until mycelial strands were visible on the surface. Fruiting bodies were initiated by manipulating the external environment using methods well known in the industry. 9 tubs were treated five days prior to the first flush by applying an aqueous solution containing 10 ppm of natamycin, as a control 9 tubs were treated the same way however without natamycin. The aqueous solution was applied at a rate of 1.84 liter per square meter and the mushroom beds were allowed to continue growing.

[3] = tested on: Verticillium fungicola; test: Mould growth on Potato Dextrose Agar plates containing natamycin; type: cell-based; settings: 5 days at 25° C.
Description: (§1) Each of these organisms were field isolates.
(§2) Potato Dextrose Agar plates containing 0, 10 and 20 ppm of natamycin and mould suspensions were prepared using well known methods.
(§3) The freshly prepared suspensions were dilluted to final concentrations of 10^4 Colony Forming Units/ml.
(§4) 10 μl of each mould suspensions was inoculated in a spot on the agar plates (in duplo). The plates were incubated for 5 days at 25° C.
(§5) After 5 days of incubation on the control plates containing no natamycin, clear colonies were formed.

[4] = tested on: Dactylium dendroides; test: as above; type: cell-based; settings: 5 days at 25° C.
Description: as §1, §2, §3, §4, §5

[5] = tested on: Trichoderma harzianum; test: as above; type: cell-based; settings: 5 days at 25° C.
Description: as §1, §2, §3, §4, §5

[6] = tested on: Mycogone pernicosa; test: as above; type: cell-based; settings: 5 days at 25° C.
Description: as §1, §2, §3, §4, §5

[7] = tested on: most fungi; settings: cited from earlier work

## C[C@@H]1C/C=C/C=C/C=C/C=C/[C@H](O[C@@H]2O[C@H](C)[C@@H](O)[C@H](N)[C@@H]2O)C[C@@H]2O[C@](O)(C[C@@H](O)C[C@H]3O[C@@H]3/C=C/C(=O)O1)C[C@H](O)[C@H]2C(=O)O [natamycin]
[1]
  inhibition of mushroom mycelium: inhibited
[2]; 10 ppm natamycin aqueous solution, 1.84 liter per square meter, five days prior to first flush, 9 tubs
  average yield: 3.94 pounds per square feet
[2]; 10 ppm natamycin
  yield compared to the untreated control: statistically significant yield increase
[3]; 10 ppm natamycin
  growth on agar plate: only some slight growth
[3]; 20 ppm natamycin
  growth on agar plate: no growth
[4]; 10 ppm natamycin
  growth on agar plate: no growth
[4]; 20 ppm natamycin
  growth on agar plate: no growth
[5]; 10 ppm natamycin
  growth on agar plate: no growth
[5]; 20 ppm natamycin
  growth on agar plate: no growth
[6]; 10 ppm natamycin
  growth on agar plate: no growth
[6]; 20 ppm natamycin
  growth on agar plate: no growth
[7]
  MIC (Minimal Inhibitory Concentration): less than 20 ppm

Source: patent publication US6655081B1, “Mushrooms” (DSM N.V., priority 1999, dated 2003)
